Measurements as given in patent US20140357512A1, “HISTONE DEACETYLASE (HDAC) BIOMARKERS IN MULTIPLE MYELOMA” (priority 2013, published 2014).

System: human myeloma cell line MM.1S
Assay: SILAC acetylated-lysine peptide profiling, HDAC inhibitor vs DMSO (light/heavy ratio)
Format: cell-based
From the text: An embodiment of the invention comprises utilizing the SILAC method in order to quantitate changes in protein expression between two or more populations of cells. The SILAC method is a technique based on mass spectrometry that detects differences in protein abundance among samples using non-radioactive isotopic labeling. The SILAC method is known in the art, and described in detail in Ong et al., “Stable Isotope Labeling by Amino Acids in Cell Culture, SILAC, as a Simple and Accurate Approach to Expression Proteomics”, Molecular & Cellular Proteomics, vol. 1, pp. 376-386 (2002), which is incorporated herein by reference in its entirety.
Briefly, the SILAC method involves growing two populations of cells in cell culture. The first population of cells is grown in growth media containing normal amino acids (“normal media”). The second population of cells is grown in media lacking a standard essential amino acid (such as lysine), but is then supplemented with a non-radioactive, isotopically labeled form of that essential amino acid (such as lysine labeled with ^13C atoms, rather than normal ^12C atoms), which is called “heavy media”. When the two populations of cells are each growing in the medium, they incorporate the amino acids into all of their proteins. The growth of cells maintained in the heavy media is no different from that in normal media. All peptides containing the heavy amino acids are heavier than their normal counterparts. The cells from each of the two populations of cells are lysed. The lysates from each of the two cell populations are then combined. The combined cell lysates are then analyzed by mass spectrometry. Pairs of chemically identical peptides of different stable isotope composition can be differentiated in a mass spectrometer due to their difference in mass. The ratio of peak intensities in the mass spectrum for such peptide pairs reflects the abundance ratio for the two proteins.
This example describes SILAC studies that were performed to compare the effects of three different HDAC inhibitors (Compound A, Compound B, and tubastatin A) to a control on a human multiple myeloma cell line. The HDAC inhibitors were also compared amongst themselves to determine differences in their effects.
A human myeloma cell line MM.1S was grown using either ^12C (light) or ^13C (heavy) lysine containing culture medium. The “heavy” cells were treated with DMSO as the control, and the “light” cells were treated with a single HDAC inhibitor at 37° C. for 6 hours. The heavy and light cells were lysed, and the lysates were mixed in 1:1 ratio and digested with the protease trypsin. The acetylated lysine containing peptides (due to the action of the HDAC inhibitor) in the digested peptide pool were captured by a non-specific anti-acetylated lysine antibody cocktail (the antibodies identify both light and heavy acetylated peptides), and subjected to mass spectrometry analysis in order to identify thousands of individual peptides.
Thousands of peptides were identified in pairs (^12C and ^13C) due to their known mass differences. The amino acid sequence and quantitative ratio (Light/Heavy) of a given peptide in two differentially treated cell lysates were then determined and annotated with their possible protein (gene) sources.
As stated above, three HDAC inhibitors (Compound A, Compound B, and Tubastatin A) were used. Thus, the SILAC method was performed three times, with a different HDAC inhibitor compared to a control each time. Accordingly, there are three pairs of quantitative data in the table below, i.e., Compound A:DMSO, Compound B:DMSO, and Tubastatin A:DMSO. A cut-off of 1.30 fold of change (increase or decrease) was then used to determine “changed” or “+” in the table, and any peptides with a fold of change less than 1.3 fold were determined to be “unchanged” or “0” in the table. Those peptides that were not identified were marked as “NA” in the table. […]

O=C(NO)c1cnc(NC2(c3cccc(F)c3)CCCCC2)nc1 [Compound B, 2-((1-(3-fluorophenyl)cyclohexyl)amino)-N-hydroxypyrimidine-5-carboxamide]
−0.38 log 2: L/H ratio of acetylated peptide (TTHLIAK(ac)EEMIHNLQ (SEQ ID NO: 435), 26S proteasome non-ATPase regulatory subunit 12 [448], PSMD12)
0.74 log 2: L/H ratio of acetylated peptide (TVSK(ac)[…] (SEQ ID NO: 428), 6-phosphogluconate dehydrogenase decarboxylating [38], PGD)
−0.63: L/H ratio of acetylated peptide (ac)[…](ac)AAK (SEQ ID NO: 6) (VDAC3 [12], log 2 scale, drug vs DMSO)
−0.47: L/H ratio of acetylated peptide […](ac)TAVAPIER (SEQ ID NO: 11) (SLC25A5 [23], log 2 scale, drug vs DMSO)
0.40 log 2: L/H ratio of acetylated peptide (TTTCSK(ac)LAYYYQR (SEQ ID NO: 451), Signal recognition particle 54 kDa protein [120], SRP54)
−0.57 log 2: L/H ratio of acetylated peptide (VAHLALK(ac)HR (SEQ ID NO: 436), Isoform Rpn10A of 26S proteasome non-ATPase regulatory subunit 4 [9]8, PSMD4)
0.00 log 2: L/H ratio of acetylated peptide (ac)AEK(ac)FDCHYCR (SEQ ID NO: 725, four and a half LIM domains protein 1 isoform 5 [20], FHL1) | L/H ratio of acetylated peptide […](ac)VIPK (SEQ ID NO: 726, Endoplasmic reticulum resident protein 29 [48], ERP29) | L/H ratio of acetylated peptide TITMK(ac)QLLR (SEQ ID NO: 728, Branched-chain-amino-acid aminotransferase [281], BCAT2) | L/H ratio of acetylated peptide SK(ac)FVLVK (SEQ ID NO: 729, Endoplasmic reticulum resident protein 29 [54], ERP29) | L/H ratio of acetylated peptide TVGQLYK(ac)EQLAK (SEQ ID NO: 731, Isoform 1 of Myosin-9 [651], MYH9) | L/H ratio of acetylated peptide AAETCQEPK(ac)EFR (SEQ ID NO: 732, NADH dehydrogenase [ubiquinone] 1 alpha subcomplex assembly factor 4 [91], NDUFAF4) | L/H ratio of acetylated peptide ILMEHIHK(ac)LK (SEQ ID NO: 735, 60S ribosomal protein L19 [144], RPL19) | L/H ratio of acetylated peptide K(ac)FDQLLAEEK (SEQ ID NO: 737, Isoform 1 of Myosin-9 [1445], MYH9) | L/H ratio of acetylated peptide FVEFDMK(ac)PVCK (SEQ ID NO: 738, Isoform 2 of LIM and senescent cell antigen-like-containing domain protein 2 [326], LIMS2) | L/H ratio of acetylated peptide KAEAQIAAK(ac)NLDK (SEQ ID NO: 740, Aspartate aminotransferase mitochondrial [90], GOT2) | L/H ratio of acetylated peptide ALCTGEK(ac)GFGYK (SEQ ID NO: 744, Peptidyl-prolyl cis-trans isomerase F mitochondrial [86], PPIF) | L/H ratio of acetylated peptide IYK(ac)SDGIK (SEQ ID NO: 745, ADP/ATP translocase 2 [166], SLC25A5) | L/H ratio of acetylated peptide VPK(ac)TAENFR (SEQ ID NO: 748, Peptidyl-prolyl cis-trans isomerase D [43], PPID) | L/H ratio of acetylated peptide VNCLDK(ac)FWHK (SEQ ID NO: 749, Isoform 1 of LIM and SH3 domain protein 1 [23], LASP1) | L/H ratio of acetylated peptide KGEDFVK(ac)TLK (SEQ ID NO: 750, Malate dehydrogenase mitochondrial [335], MDH2) | L/H ratio of acetylated peptide EAEFTK(ac)SIAK (SEQ ID NO: 751, Signal peptidase complex subunit 2 [191], LOC653566, SPCS2) | L/H ratio of acetylated peptide FEDK(ac)TVAYTEQK (SEQ ID NO: 754, Protein disulfide-isomerase A3 [218], PDIA3) | L/H ratio of acetylated peptide ILEFFGLK(ac)K (SEQ ID NO: 756, Protein disulfide-isomerase [308], P4HB) | light to heavy ratio (L/H ratio) of acetylated peptide LQDFK(ac)SFLLK (SEQ ID NO: 582) (Serine hydroxymethyltransferase mitochondrial [469], gene SHMT2, inhibitor:DMSO) | light to heavy ratio (L/H ratio) of acetylated peptide SFLLK(ac)DSETSQR (SEQ ID NO: 567) (Serine hydroxymethyltransferase mitochondrial [474], gene SHMT2, inhibitor:DMSO) | light to heavy ratio (L/H ratio) of acetylated peptide SGLLDK(ac)WK (SEQ ID NO: 602) (Signal peptidase complex subunit 2 [38], gene LOC653566, SPCS2, inhibitor:DMSO) | light to heavy ratio (L/H ratio) of acetylated peptide YDDPEVQK(ac)DIK (SEQ ID NO: 578) (Stress-70 protein mitochondrial [135], gene HSPA9, inhibitor:DMSO) | light to heavy ratio (L/H ratio) of acetylated peptide […](ac)SLAEHR (SEQ ID NO: 534) (Stress-induced-phosphoprotein 1 [325], gene STIP1, inhibitor:DMSO) | light to heavy ratio (L/H ratio) of acetylated peptide NICSK(ac)YSVR (SEQ ID NO: 256) (Thioredoxin domain-containing protein 5 [390], TXNDC5, MUTED, MUTED-TXNDC5, drug:DMSO) | light to heavy ratio (L/H ratio) of acetylated peptide SEIINSK(ac)NFDR (SEQ ID NO: 525) (Transmembrane protein 43 [159], gene TMEM43, inhibitor:DMSO) | light to heavy ratio (L/H ratio) of acetylated peptide VK(ac)[…] (SEQ ID NO: 562) (Tricarboxylate transport protein mitochondrial [149], gene SLC25A1, inhibitor:DMSO) | light to heavy ratio (L/H ratio) of acetylated peptide VPGK(ac)DTVTK (SEQ ID NO: 308) (Trifunctional enzyme subunit beta mitochondrial [272], HADHB, drug:DMSO)
−0.53 log 2: L/H ratio of acetylated peptide (SQSCETK(ac)LLDEK (SEQ ID NO: 410), Isoform 3 of Pro-interleukin-16 [277], IL16)
−0.86 log 2: L/H ratio of acetylated peptide (TPSVGK(ac)[…] (SEQ ID NO: 418), Isoform Long of Antigen KI-67 [2264], MKI67)
0.00: light to heavy ratio (L/H ratio) of acetylated peptide, log 2 scale (SFEEK(ac)VENLK (SEQ ID NO: 233), Isoform 1 of Tumor protein D52 [180], TPD52) | L/H ratio of acetylated peptide LFAK(ac)[…] (SEQ ID NO: 98) (SFPQ [319], log 2 scale, drug vs DMSO) | L/H ratio of acetylated peptide […](ac)MILIGR (SEQ ID NO: 100) (SFXN1 [86], log 2 scale, drug vs DMSO) | L/H ratio of acetylated peptide […](ac)DK (SEQ ID NO: 103) (SLC25A5 [92], log 2 scale, drug vs DMSO) | L/H ratio of acetylated peptide AFFK(ac)GAWSNVLR (SEQ ID NO: 102) (SLC25A5 [272], log 2 scale, drug vs DMSO) | L/H ratio of acetylated peptide […](ac)ANVAK (SEQ ID NO: 101) (SLC25A10 [173], log 2 scale, drug vs DMSO) | L/H ratio of acetylated peptide TWEK(ac)LLLAAR (SEQ ID NO: 104) (SNORA6, RPSAP15, SNORA62, RPSA [57], log 2 scale, drug vs DMSO) | L/H ratio of acetylated peptide […](ac)YGAIR (SEQ ID NO: 107) (SRSF1 [38], log 2 scale, drug vs DMSO) | L/H ratio of acetylated peptide (ac)AEPSAPESK(ac)HK (SEQ ID NO: 108) (STT3B [10], log 2 scale, drug vs DMSO) | light to heavy ratio (L/H ratio) of acetylated peptide, log 2 scale (TAMK(ac)YNLGLDLR (SEQ ID NO: 158), Glutamate dehydrogenase 1 mitochondrial [527], GLUD1) | light to heavy ratio (L/H ratio) of acetylated peptide, log 2 scale (TLQYK(ac)[…] (SEQ ID NO: 252), 40S ribosomal protein S16 [50], RPS16) | light to heavy ratio (L/H ratio) of acetylated peptide, log 2 scale (TPVIVTLK(ac)ENER (SEQ ID NO: 176), Hypoxia up-regulated protein 1 [75], HYOU1) | L/H ratio of acetylated peptide […](ac)YVPR (SEQ ID NO: 109) (TUBB2C [58], log 2 scale, drug vs DMSO) | L/H ratio of acetylated peptide ILAEGGGAK(ac)FK (SEQ ID NO: 110) (TUFM [91], log 2 scale, drug vs DMSO) | L/H ratio of acetylated peptide QIESK(ac)[…] (SEQ ID NO: 111) (TXN [8], log 2 scale, drug vs DMSO) | L/H ratio of acetylated peptide VYVAK(ac)[…] (SEQ ID NO: 113) (TXNDC5, MUTED, MUTED-TXNDC5 [118], log 2 scale, drug vs DMSO) | L/H ratio of acetylated peptide […](ac)YQGPR (SEQ ID NO: 112) (TXNDC5, MUTED, MUTED-TXNDC5 [150], log 2 scale, drug vs DMSO) | light to heavy ratio (L/H ratio) of acetylated peptide, log 2 scale (TYGEIFEK(ac)FHPIR (SEQ ID NO: 188), NADH dehydrogenase [ubiquinone] 1 subunit C2 [114], NDUFC2) | light to heavy ratio (L/H ratio), log 2 scale, acetylated peptide […](ac)YGK (SEQ ID NO: 817) (Transitional endoplasmic reticulum ATPase [109], gene VCP, drug:DMSO) | light to heavy ratio (L/H ratio), log 2 scale, acetylated peptide FGAPQK(ac)DVK (SEQ ID NO: 788) (Trifunctional enzyme subunit alpha mitochondrial [359], gene HADHA, drug:DMSO) | light to heavy ratio (L/H ratio), log 2 scale, acetylated peptide ILQEGVDPK(ac)K (SEQ ID NO: 789) (Trifunctional enzyme subunit alpha mitochondrial [569], gene HADHA, drug:DMSO) | L/H ratio of acetylated peptide VVVTK(ac)YCDPDSYHR (SEQ ID NO: 114) (U2AF2 [462], log 2 scale, drug vs DMSO) | L/H ratio of acetylated peptide FGIAAK(ac)[…] (SEQ ID NO: 115) (VDAC1 [224], log 2 scale, drug vs DMSO) | L/H ratio of acetylated peptide YK(ac)[…] (SEQ ID NO: 116) (VDAC2 [63], log 2 scale, drug vs DMSO) | L/H ratio of acetylated peptide YK(ac)[…] (SEQ ID NO: 117) (VDAC3 [63], log 2 scale, drug vs DMSO)
−0.56 log 2: L/H ratio of acetylated peptide (TFYQMYDK(ac)GLVYR (SEQ ID NO: 407), Isoleucyl-tRNA synthetase mitochondrial [233], IARS2)
−0.45 log 2: L/H ratio of acetylated peptide (SQNTK(ac)[…] (SEQ ID NO: 458), Nucleoprotein TPR [713], TPR) | light to heavy ratio (L/H ratio) of acetylated peptide SNYK(ac)MMFVK (SEQ ID NO: 368) (Small acidic protein [174], C11orf58, drug:DMSO)
−0.74 log 2: L/H ratio of acetylated peptide (SFYYK(ac)LR (SEQ ID NO: 395), Fatty acid synthase [2426], FASN)
